Measurements: publication PMC12531871, “Indole-2-carboxamides Optimization for Antiplasmodial Activity” (ACS Bio & Med Chem Au, 2025)
In brackets after ≈: the same amount, converted by molar mass. Read-outs that look alike come from different tables or passages of the source.

What was measured:
[1] = Resazurin assay for cytotoxicity in HepG2 cells; type: cell-based, human; settings: human, HepG2 cells; HepG2 cell line, 72 h, resazurin
Method: HepG2 cells were trypsinized, counted, and distributed in a 96-well plate at a density of 30,000 cells per well (180 μL). The plate was incubated at 37 °C and 5% CO2 for 24 h. Following incubation, 20 μL of serial dilutions of the tested compounds were added to the wells, with concentrations ranging from 30 to 0.47 μM. The plate was incubated for an additional 72 h at 37 °C and 5% CO2. Untreated cells served as positive controls, while wells containing only medium were used as negative controls. Postincubation, microscopy was employed to determine the highest compound concentration for treatment results. […] Concentration–response curves were generated, and half-maximal inhibitory concentration (CC50) values were determined using nonlinear regression analysis.

[2] = system: P. vivax field isolates from Brazil; assay: Ex vivo drug susceptibility of P. vivax field isolates; type: cell-based; settings: Plasmodium vivax, ex vivo
P. falciparum Dd2 strain = assay: Antiplasmodial activity against resistant P. falciparum Dd2; type: cell-based; settings: Plasmodium falciparum
[3] = system: male P. falciparum gametocytes; assay: P. falciparum dual gamete formation assay (Pf DGFA), male gametocytes; type: cell-based; settings: Plasmodium falciparum, read-out: inhibition against male gametocytes
[4] = system: P. falciparum RF12 strain; assay: Antiplasmodial activity against resistant P. falciparum RF12; type: cell-based; settings: Plasmodium falciparum, read-out: IC50 ± SD, RF12
[5] = system: P. falciparum (3D7 strain) digestive vacuole; assay: Digestive vacuole homeostasis, acridine orange fluorescence; type: cell-based, Plasmodium falciparum; settings: 10 μM, 3 min treatment, isolated parasites
Method: The sample was incubated for 40 min at 37 °C. […] Fluorescence was measured in a Hitachi F-7000 fluorimeter (Tokyo, Japan) by continuous measurement of the fluorescence (λex = 488 nm; λem = 560 nm) at 37 °C. Experiments were performed in triplicate.

P. falciparum K1 strain = assay: Antiplasmodial activity against resistant P. falciparum K1; type: cell-based; settings: Plasmodium falciparum
[6] = system: P. falciparum 3D7 (chloroquine-sensitive); assay: Effect of verapamil on inhibitory activity in P. falciparum 3D7; type: cell-based; settings: Plasmodium falciparum
P. falciparum 7G8 strain = assay: Antiplasmodial activity against resistant P. falciparum 7G8; type: cell-based; settings: Plasmodium falciparum; resistant strain 7G8; read-out: IC50 ± SD, 7G8
Rat hepatocyte stability = type: in vitro ADME; settings: rat hepatocyte stability
Method: The reaction was terminated with the addition of ice-cold MeCN at designated time points. The samples were then centrifuged (4200 rpm) for 20 min at 20 °C, and the supernatant was half diluted in water and then analyzed using LCMS/MS. The % parent compound remaining, half-life (t 1/2), and clearance (CLint) were calculated using standard methodology. The experiment was carried out in duplicate. Diltiazem, 7-Ethoxy Coumarin, Propranolol, and Midazolam were used as reference standards.

[7] = Kinetic solubility at pH 7.4; type: physicochemical; settings: phosphate-buffered saline, 25 °C, pH 7.4, aqueous buffer, kinetic from dmso stock; read-out: Kinetic solubility (Sol)
Method: Kinetic solubility assay was performed using UV–vis detection. […] The samples were filtered using a multiscreen solubility filter plate. The filtrate was diluted by 50% with MeCN. A five-point linearity curve was prepared in PBS/MeCN (1:1, v/v) at 200, 150, 75, 25, and 2.5 μM. Blank, linearity, and test samples (n = 2) were transferred to a UV-readable plate, and the plate was scanned for absorbance. Best-fit calibration curves were constructed using the calibration standards and used to determine the test sample solubility. The experiment was carried out in duplicate. Diethylstilbestrol, Haloperidol, and Diclofenac Sodium were used as reference standards.

[8] = system: synchronized P. falciparum parasites (3D7 strain); assay: P. falciparum asexual blood stage-specificity assay (8 h exposures); type: cell-based, Plasmodium falciparum
P. falciparum 3D7 clone = assay: Ex vivo schizont maturation assay, 3D7 laboratory strain control; type: cell-based; settings: Plasmodium falciparum, ex vivo assay conditions
[9] = system: P. falciparum 3D7 strain (Pf3D7); assay: Antiplasmodial activity against P. falciparum 3D7 blood-stage parasites (SYBR Green, 72 h); type: cell-based, Plasmodium falciparum; settings: Plasmodium falciparum
[10] = system: P. falciparum TM90-2CB strain; assay: Antiplasmodial activity against resistant P. falciparum TM90-2CB; type: cell-based; settings: Plasmodium falciparum; resistant strain TM90-2CB; read-out: IC50 ± SD, TM90-2CB
[11] = system: P. falciparum NF54 strain; assay: Antiplasmodial activity against P. falciparum NF54 (SYBR Green, 72 h); type: cell-based, Plasmodium falciparum; settings: Plasmodium falciparum, NF54, drug-sensitive NF54, strain panel; read-out: IC50 ± SD, NF54
[12] = Human liver microsome stability; type: in vitro ADME; settings: human, pooled human liver microsomes, human microsomal intrinsic clearance; read-out: hMics, human microsome Clint
Method: A solution of the test compounds in phosphate buffer solution (1 μM) was incubated in pooled human or mouse liver microsomes (0.5 mg/mL) for 0, 5, 20, 30, 45, and 60 min at 37 °C in the presence and absence of an NADPH regeneration system (NRS). The tests were conducted by […], India. The reaction was terminated with the addition of ice-cold acetonitrile, containing a […] standard, at designated time points. The sample was centrifuged (4200g) for 20 min at 20 °C and the supernatant was diluted by half in water and then analyzed by LC-MS/MS. The % parent compound remaining, half-life (t 1/2) and clearance (CLint) were calculated using standard methodology. The experiment was carried out in duplicate. Verapamil, diltiazem, phenacetin, and imipramine were used as reference standards.

[13] = system: female P. falciparum gametocytes; assay: P. falciparum dual gamete formation assay (Pf DGFA), female gametocytes; type: cell-based; settings: Plasmodium falciparum, read-out: inhibition against female gametocytes
[14] = system: P. falciparum field isolates from Brazil; assay: Ex vivo drug susceptibility of P. falciparum field isolates; type: cell-based, Plasmodium falciparum
[15] = system: P. falciparum Dd2 (chloroquine resistance); assay: Effect of verapamil on inhibitory activity in P. falciparum Dd2; type: cell-based; settings: Plasmodium falciparum; Dd2, absence of verapamil; read-out: IC50^Dd2 (without VP)
[16] = eLogD at pH 7.4, miniaturized shake flask method; type: physicochemical; settings: 1-octanol/PBS (1:1, v/v), pH 7.4, pH 7.4, miniaturized shake flask method
Method: eLogD at pH 7.4 was determined using a miniaturized shake flask method. A solution of a presaturated mixture of 1-octanol and phosphate-buffered saline (PBS) (1:1, v/v) and the test compound (75 μM) was incubated at 25 °C with constant shaking (850 rpm) for 2h. After incubation, the organic and aqueous phases were separated, and samples of each phase were transferred to a plate for dilution. […] The samples were quantitated using LC-MS/MS. The experiment was carried out in duplicate. Propranolol, Amitriptyline, and Midazolam were used as reference standards.

In the case of `O=C(c1cc2cc(C(F)(F)F)ccc2[nH]1)N(Cc1cccnc1)CC1CCNC1` (stereo not shown) [Compound 6f, N-(3-Pyridylmethyl)-N-(pyrrolidin-3-ylmethyl)-5-(trifluoromethyl)-1H-indole-2-carboxamide], the CC50 at 72 h [1] is reported as > 30000 nM, the IC50 ([2]; 9 clinical isolates, read-out: median IC50 (range), P. vivax (9)) is reported as 698 nM and the EC50 ([2]; read-out: median EC50 against P. vivax field isolates) is reported as 698 nM. For the same compound, the EC50 ([2]; read-out: range of EC50 across individual P. vivax isolates) was 636 to 910 nM, the IC50 (P. falciparum Dd2 strain; 3D7 / DD2, resistant Dd2, in parallel with 3D7, read-out: IC50^Dd2 ± SD) was > 10000 nM and the IC50 (P. falciparum Dd2 strain; resistant strain Dd2, strain panel, read-out: IC50 ± SD, Dd2) was 2600 ± 400 nM. The inhibition at 1 µM [3] was 28%, the IC50 [4] was 2000 ± 300 nM and the “effect on digestive vacuole H+ homeostasis (acridine orange fluorescence)” value [5] was “interferes with proton (H^+) homeostasis”. The IC50 (P. falciparum K1 strain; 3D7 / K1, resistant K1, in parallel with 3D7, read-out: IC50^K1 ± SD) was 4500 ± 200 nM, the IC50 (P. falciparum K1 strain; resistant strain K1, strain panel, read-out: IC50 ± SD, K1) was 7300 ± 200 nM and the IC50 ([6]; 3D7, verapamil experiment, read-out: IC50 in 3D7 strain) was ~200 nM. It also gave an IC50 ([6]; read-out: IC50^3D7 (10 μM VP), 3D7, presence of 10 μM verapamil) of 460 nM, an IC50 ([6]; 3D7, absence of verapamil, read-out: IC50^3D7 (without VP)) of 196 nM and an IC50 (P. falciparum 7G8 strain) of 1800 ± 300 nM. The “R Heps (Clint)” value (Rat hepatocyte stability) was 2.6 μL/min/10^6, the solubility kinetic at 2 h [7] was 195 µM (≈ 78.5 µg/mL) and the “timing of peak activity (lowest IC50^8h) in asexual blood stages” value [8] was “increased potency on the early ring forms”. For the same compound, the EC50 (P. falciparum 3D7 clone; 3D7, read-out: EC50 against the P. falciparum 3D7 clone) was 363 nM, the IC50 (P. falciparum 3D7 clone; 3D7 control, read-out: P. falciparum 3D7 IC50) was 363 nM and the IC50 ([9]; 3D7, 72 h, 3D7 strain, 72 h, SYBR Green, read-out: Pf3D7-IC50) was 400 ± 100 nM. It also gave an IC50 ([9]; 3D7, drug-sensitive 3D7, strain panel, read-out: IC50 ± SD, 3D7) of 400 ± 100 nM, an IC50 ([9]; 3D7 / DD2, sensitive 3D7, in parallel with K1 and Dd2, read-out: IC50^3D7 ± SD) of 400 ± 200 nM and an IC50 [10] of 2800 ± 500 nM. For the same compound, the IC50 [11] was 370 ± 60 nM, the microsomal CLint at 1 μM [12] was 11 µL/min/mg and the inhibition at 1 µM [13] was 7%. For the same compound, the IC50 ([14]; Plasmodium falciparum, 7 clinical isolates, ex vivo, read-out: median IC50 (range), P. falciparum (7)) was > 10000 nM, the “activity against P. falciparum field isolates” value ([14]; concentration of 10 μM) was “inactive” and the IC50 [15] was 4030 nM. For the same compound, the logD at 2 h [16] was 1.1.
